Measured values: PMC12123727 (BMC Cancer, 2025)
Where two headings read alike, the source gives them in different places.

Tests used:
[1] = Phase 1 plasma pharmacokinetics; assay type: in vivo, human; conditions: for increase of exposure (plasma concentration) with dose: dose range 40–80 mg BID; for AUC(0-t) / AUC(0-inf) / Cmax / half-life / Tmax / MRT last: human, plasma; for AUC(0-t): AUC0-t; for AUC(0-t) / AUC(0-inf) / Cmax: Mean ± SD; for AUC(0-inf): AUC0-∞; for half-life: T1/2, Median; for Tmax: Median; for MRT last: po
[2] = test system: r/r B cell NHL; experiment: Phase 1 efficacy; assay type: in vivo, human
[3] = test system: r/r B cell NHL or chronic lymphocytic leukemia; conditions: cited from earlier work
[4] = test system: advanced solid tumor; conditions: combined with pazopanib, follow-up, cited from earlier work
[5] = C1D7 compared to C1D1, 40–80 mg BID
[6] = oral, 40 mg, abexinostat continuous administration (BID, 4-h interval) on C1D1, 40 mg (n = 4)
[7] = oral, 40 mg, abexinostat continuous administration (BID, 4-h interval) on C1D7, 40 mg (n = 4)
[8] = oral, 60 mg, abexinostat continuous administration (BID, 4-h interval) on C1D1, 60 mg (n = 3)
[9] = oral, 60 mg, abexinostat continuous administration (BID, 4-h interval) on C1D7, 60 mg (n = 3)
[10] = oral, 80 mg, abexinostat continuous administration (BID, 4-h interval) on C1D1, 80 mg (n = 4)
[11] = oral, 80 mg, abexinostat continuous administration (BID, 4-h interval) on C1D7, 80 mg (n = 4)

Question: With `CN(C)Cc1c(C(=O)NCCOc2ccc(C(=O)NO)cc2)oc2ccccc12` [abexinostat, Abexinostat] as the compound, how does the “average accumulation ratio for Cmax (RA-Cmax)” value [1, 5] read?
Answer: The value was 0.94–1.48.

Question: And the “average accumulation ratio for the AUC (RA-AUC)” value [1, 5]?
Answer: The value was 1.16–1.52.

Question: And the “increase of exposure (plasma concentration) with dose” value [1]?
Answer: Its value is “approximately dose-proportional”.

Question: And the “increase of exposure (plasma concentration) with dose” value ([1]; listed as Abexinostat)?
Answer: Its value is “dose-proportional”.

Question: What about the AUC(0-t) [1, 6] of the same compound?
Answer: Its AUC(0-t) is 339 ± 90.9 ng·h/mL.

Question: And the AUC(0-t) [1, 7]?
Answer: The AUC(0-t) was 463 ± 32.5 ng·h/mL.

Question: And the AUC(0-inf) [1, 6]?
Answer: Its AUC(0-inf) is 361 ± 88.3 ng·h/mL.

Question: And the AUC(0-inf) [1, 7]?
Answer: The AUC(0-inf) was 491 ± 43.7 ng·h/mL.

Question: What about the Cmax [1, 6] of the same compound?
Answer: The Cmax was 98.1 ± 27.6 ng/mL.

Question: What about the Cmax [1, 7] of the same compound?
Answer: Its Cmax is 107 ± 16.3 ng/mL.

Question: What about the half-life [1, 6] of the same compound?
Answer: The half-life was 3.69 h.

Question: And the half-life [1, 7]?
Answer: The half-life was 4.84 h.

Question: What about the Tmax [1, 6] of the same compound?
Answer: The Tmax was 1 h.

Question: What about the Tmax [1, 7] of the same compound?
Answer: Its Tmax is 1 h.

Question: What about the AUC(0-t) [1, 8] of the same compound?
Answer: The AUC(0-t) was 521 ± 60.6 ng·h/mL.

Question: And the AUC(0-t) [1, 9]?
Answer: Its AUC(0-t) is 600 ± 53.8 ng·h/mL.

Question: And the AUC(0-inf) [1, 8]?
Answer: Its AUC(0-inf) is 563 ± 69.6 ng·h/mL.

Question: What about the AUC(0-inf) [1, 9] of the same compound?
Answer: Its AUC(0-inf) is 656 ± 72 ng·h/mL.

Question: What about the Cmax [1, 8] of the same compound?
Answer: Its Cmax is 115 ± 24.2 ng/mL.

Question: And the Cmax [1, 9]?
Answer: The Cmax was 104 ± 26.9 ng/mL.

Question: What about the half-life [1, 8] of the same compound?
Answer: The half-life was 6.28 h.

Question: And the half-life [1, 9]?
Answer: Its half-life is 6.53 h.

Question: And the Tmax ([1]; oral, 60 mg, abexinostat continuous administration (BID, 4-h interval) on C1D1, 60 mg (n = 3), abexinostat value footnoted: 0.5 h after second dose)?
Answer: Its Tmax is 4.55 h.

Question: And the Tmax [1, 9]?
Answer: The Tmax was 0.48 h.

Question: And the AUC(0-t) [1, 10]?
Answer: The AUC(0-t) was 603 ± 104 ng·h/mL.

Question: What about the AUC(0-t) [1, 11] of the same compound?
Answer: The AUC(0-t) was 767 ± 140 ng·h/mL.

Question: And the AUC(0-inf) [1, 10]?
Answer: Its AUC(0-inf) is 625 ± 116 ng·h/mL.

Question: What about the AUC(0-inf) [1, 11] of the same compound?
Answer: Its AUC(0-inf) is 744 ± 132 ng·h/mL.

Question: And the Cmax [1, 10]?
Answer: The Cmax was 128 ± 25.3 ng/mL.

Question: What about the Cmax [1, 11] of the same compound?
Answer: Its Cmax is 184 ± 27 ng/mL.

Question: And the half-life [1, 10]?
Answer: Its half-life is 5.13 h.

Question: What about the half-life [1, 11] of the same compound?
Answer: The half-life was 5.03 h.

Question: What about the Tmax ([1]; oral, 80 mg, abexinostat continuous administration (BID, 4-h interval) on C1D1, 80 mg (n = 4), abexinostat value footnoted: 0.97 h after second dose) of the same compound?
Answer: The Tmax was 4.78 h.

Question: And the Tmax [1, 11]?
Answer: The Tmax was 2.74 h.

Question: What about the MRT last ([1]; 40 mg) of the same compound?
Answer: Its MRT last is 2.8 h.

Question: What about the MRT last ([1]; 60 mg) of the same compound?
Answer: The MRT last was 6.97 h.

Question: And the MRT last ([1]; 80 mg)?
Answer: The MRT last was 3.47 h.

Question: And the accumulation ([1]; on C1D7)?
Answer: Its accumulation is “slight accumulation”.

Question: And the absorption ([1]; oral)?
Answer: The absorption was “rapidly absorbed”.

Question: What about the “12-month PFS rate” value ([2]; FAS) of the same compound?
Answer: Its value is 30.0%.

Question: And the “30-month PFS rate” value ([2]; FAS)?
Answer: The value was 20.0%.

Question: And the “39-month OS rate” value ([2]; FAS)?
Answer: The value was 64.8%.

Question: And the “duration of response (DoR)” value ([2]; FAS)?
Answer: Its value is “not reached”.

Question: What about the “median overall survival (OS)” value ([2]; FAS) of the same compound?
Answer: The value was “not reached”.

Question: And the “median progression-free survival (PFS)” value ([2]; FAS)?
Answer: The value was 5.01 months.

Question: What about the “objective response rate (ORR)” value ([2]; FAS, 4/10, all doses) of the same compound?
Answer: The value was 40.0%.

Question: What about the “disease control rate (DCR)” value ([2]; FAS, 6/10) of the same compound?
Answer: Its value is 60%.

Question: And the “PFS of the patient who achieved CR” value ([2]; Patient 2, DLBCL, 40 mg BID, still on treatment)?
Answer: Its value is “over 30 months”.

Question: And the patients still alive ([2]; at data cutoff November 30, 2023)?
Answer: The patients still alive was “Seven patients”.

Question: And the “median DoR” value ([2]; patients with FL)?
Answer: The value was 7.82 months.

Question: And the “median PFS” value ([2]; patients with FL)?
Answer: Its value is 8.38 months.

Question: And the ORR ([2]; patients with FL, 3/6)?
Answer: The ORR was 50%.

Question: And the DCR ([2]; patients with FL, 5/6)?
Answer: The DCR was 83.3%.

Question: And the DCR ([2]; r/r DLBCL patients, 1/4)?
Answer: The DCR was 25%.

Question: What about the ORR ([2]; r/r DLBCL patients, 1/4) of the same compound?
Answer: Its ORR is 25%.

Question: And the “median OS” value ([3]; PCYC-0401, DLBCL)?
Answer: Its value is 10.2 months.

Question: What about the “median PFS” value ([3]; PCYC-0401, DLBCL) of the same compound?
Answer: The value was 2.8 months.

Question: And the “median OS” value ([3]; PCYC-0401, FL)?
Answer: The value was “not reached”.

Question: And the “median PFS” value ([3]; PCYC-0401, FL)?
Answer: The value was 10.2 months.

Question: What about the ORR ([3]; PCYC-0401, patients with DLBCL, 5/16) of the same compound?
Answer: The ORR was 31%.

Question: And the ORR ([3]; PCYC-0401, patients with FL, 9/16)?
Answer: Its ORR is 56%.

Question: What about the “median duration of treatment in exceptional responders” value ([4]; range 39.8–133 +) of the same compound?
Answer: The value was 44.1 months.

Question: What about the “time on treatment of one patient with RCC” value [4] of the same compound?
Answer: The value was greater than 11 years.
